Experimental data published in article PMC7071076, “Antibacterial Activity and Pharmacokinetic Profile of a Promising Antibacterial Agent: 22-(2-Amino-phenylsulfanyl)-22-Deoxypleuromutilin” (Molecules, 2020).
Values after ≈ are worked out from the molar mass of the structure shown. Where two headings read alike, the source gives them in different places.

What was measured:
MRSA N30 = experiment: MIC testing, clinical strain; format: cell-based; conditions: Staphylococcus aureus
Source text: (§1) Methicillin-resistant Staphylococcus aureus (MRSA) ATCC 43300, Staphylococcus aureus ATCC 29213, Escherichia coli ATCC 25922, Salmonella typhimurium ATCC 14028, Enterococcus faecalis ATCC 29212, and Enterococcus faecium ATCC 35667 were obtained from the China Institute of Veterinary Drug Control (Beijing, China). Five clinical strains of MRSA (N7, N9, N20, N30, and N54) were isolated from diseased pig tissues of South China Agricultural University and Foshan University Animal Hospital. All clinical strains were identified as MRSA by Gram stain, catalase reaction, coagulase test, staphylococcus API identification system test, MecA gene test, and methicillin MIC test.
(§2) The MIC of amphenmulin against MRSA, Escherichia coli, Salmonella typhimurium, Enterococcus faecalis, and Enterococcus faecium were determined using tiamulin as controls. MIC values were measured by the method of previous work. Staphylococcus aureus ATCC 29213 was used as the quality control bacteria, and the quality control range was referred to the Clinical and Laboratory Standards Institute (CLSI). The bacteria solution was diluted to ~10^6 CFU/mL with Mueller–Hinton (MH) broth for MRSA, Escherichia coli and Salmonella typhimurium while Trypticase Soy Broth for Enterococcus faecalis and Enterococcus faecium. Drugs were dissolved in an aqueous solution of N, N-dimethylformamide (DMF) at a concentration of 2560 µg/mL, and then diluted with broth to prepare working solution (1280 µg/mL). The drug susceptibility testing was performed in 96-well plate. A total of 20 µL of working solution was added into column 1 and well mixed as a 10-fold dilution, following which Serial 2-fold dilutions were prepared to provide concentration ranges of 128–0.0078 µg/mL. Blank broth (no cultures) and bacteria solution (drugs replaced by blank solvent) were set as drug-free controls. Each 96-well plate was cultured at 37 °C for 24 h. The MIC value is the lowest concentration of amphenmulin which inhibits the visible growth of bacteria. The experiment was repeated three times.

MRSA N54 = experiment: MIC testing, clinical strain; format: cell-based; conditions: Staphylococcus aureus
Source text: as §1, §2

MRSA N9 = experiment: MIC testing, clinical strain; format: cell-based; conditions: Staphylococcus aureus
Source text: as §1, §2

MRSA N20 = experiment: MIC testing, clinical strain; format: cell-based; conditions: Staphylococcus aureus
Source text: as §1, §2

MRSA N7 = experiment: MIC testing, clinical strain; format: cell-based; conditions: Staphylococcus aureus
Source text: as §1, §2

[1] = Pharmacokinetic study in mice; format: in vivo; conditions: female, ICR, mouse, plasma, 10 mg/kg
Experimental: Pharmacokinetic parameters of amphenmulin were measured according to previous reports with some modifications. Each group consisted of eight female SPF-ICR mice. Amphenmulin (1 mg/mL) was administered intravenously, intraperitoneally, and orally at a dose of 10 mg/kg, respectively. Formulation of amphenmulin was a filtered solution in 5% DMSO, 5% Tween-80, and 90% normal saline. Serial samples (each 0.2 mL) were collected from the ocular venous plexus and placed in a plastic centrifuge tube. The blood samples were placed at room temperature for 20 min and transferred to a 4 °C refrigerator for 12 h to promote blood coagulation. Then samples were centrifuged at 2000 r/min for 10 min to get serum. Serum samples were frozen at −20°C. 100 µL of samples was accurately absorbed and mixed with 100 µL of acetonitrile in a 1.5 mL centrifuge tube. The sample was mixed vigorously and centrifuged at 12,000 rpm for 10 min. The supernatant was transferred, filtered through a 0.22 μm cellulose membrane filter and used for LC-MS/MS analysis. Equipment and analysis conditions were shown in supplemental data. The pharmacokinetic parameters of amphenmulin were determined from the mean plasma concentration with noncompartmental analysis in WinNonlin 5.2 software (Pharsight, Mountain View, CA, USA). Data were shown as mean ± standard deviation (SD).

[2] = intraperitoneal, mice, intraperitoneal 10 mg/kg, n = 8, read-out: plasma concentration, mean ± S.D
[3] = iv, intravenous 10 mg/kg, mice 1-8 in order, read-out: plasma concentration, individual mice
[4] = iv, mice, intravenous 10 mg/kg, n = 8, read-out: plasma concentration, mean ± S.D

**Q.** With C=C[C@]1(C)C[C@@H](OC(=O)CSc2ccccc2N)[C@]2(C)[C@H](C)CC[C@]3(CCC(=O)[C@H]32)[C@@H](C)[C@@H]1O [Amphenmulin, 22-(2-amino-phenylsulfanyl)-22-deoxypleuromutilin] as the molecule, how does the MIC (MRSA N30) read?
**A.** The MIC was 8 µg/mL (≈ 16.5 µM).

**Q.** And the MIC (MRSA N54)?
**A.** Its MIC is 0.0156 µg/mL (≈ 0.0321 µM).

**Q.** What about the MIC (MRSA N9) of the same molecule?
**A.** The MIC was 0.0156 µg/mL (≈ 0.0321 µM).

**Q.** And the MIC (MRSA N20)?
**A.** Its MIC is 4 µg/mL (≈ 8.24 µM).

**Q.** What about the MIC (MRSA N7) of the same molecule?
**A.** The MIC was 4 µg/mL (≈ 8.24 µM).

**Q.** What about the concentration at 0.083 h [1, 2] of the same molecule?
**A.** The concentration at 0.083 h was 850 ± 320 ng/mL.

**Q.** And the concentration at 0.25 h [1, 2]?
**A.** Its concentration at 0.25 h is 1220 ± 460 ng/mL.

**Q.** What about the concentration at 0.5 h [1, 2] of the same molecule?
**A.** Its concentration at 0.5 h is 980 ± 420 ng/mL.

**Q.** What about the concentration at 0.75 h [1, 2] of the same molecule?
**A.** Its concentration at 0.75 h is 740 ± 330 ng/mL.

**Q.** What about the concentration at 1 h [1, 2] of the same molecule?
**A.** Its concentration at 1 h is 580 ± 240 ng/mL.

**Q.** And the concentration at 2 h [1, 2]?
**A.** Its concentration at 2 h is 340 ± 160 ng/mL.

**Q.** What about the concentration at 4 h [1, 2] of the same molecule?
**A.** The concentration at 4 h was 190 ± 120 ng/mL.

**Q.** And the concentration at 6 h [1, 2]?
**A.** Its concentration at 6 h is 120 ± 90 ng/mL.

**Q.** And the concentration at 8 h [1, 2]?
**A.** Its concentration at 8 h is 70 ± 40 ng/mL.

**Q.** What about the concentration at 12 h ([1]; intraperitoneal, mice, intraperitoneal 10 mg/kg, 12 h, n = 8, read-out: plasma concentration, mean ± S.D) of the same molecule?
**A.** Its concentration at 12 h is 30 ± 10 ng/mL.

**Q.** And the AUC(0-inf) ([1]; ip, mice, intraperitoneal)?
**A.** The AUC(0-inf) was 2520 ± 810 ng·h/mL.

**Q.** What about the Cmax ([1]; ip, mice, intraperitoneal) of the same molecule?
**A.** Its Cmax is 1340 ± 420 ng/mL.

**Q.** And the MRT ([1]; ip, mice, intraperitoneal)?
**A.** Its MRT is 3.28 ± 0.42 h.

**Q.** And the Tmax ([1]; ip, mice, intraperitoneal)?
**A.** The Tmax was 0.32 ± 0.21 h.

**Q.** And the bioavailability ([1]; ip, mice, intraperitoneal)?
**A.** Its bioavailability is 20.7%.

**Q.** And the half-life ([1]; ip, mice, intraperitoneal)?
**A.** Its half-life is 2.64 ± 0.72 h.

**Q.** What about the Vd/F ([1]; ip, mice, intraperitoneal, read-out: Vz/F) of the same molecule?
**A.** Its Vd/F is 15.9 ± 7.41 L/kg.

**Q.** What about the concentration at 0.083 h [1, 3] of the same molecule?
**A.** Its concentration at 0.083 h is 3060 ng/mL.

**Q.** What about the concentration at 0.25 h [1, 3] of the same molecule?
**A.** Its concentration at 0.25 h is 2850 ng/mL.

**Q.** And the concentration at 0.5 h [1, 3]?
**A.** The concentration at 0.5 h was 2650 ng/mL.

**Q.** And the concentration at 0.75 h [1, 3]?
**A.** The concentration at 0.75 h was 2350 ng/mL.

**Q.** What about the concentration at 4 h [1, 3] of the same molecule?
**A.** Its concentration at 4 h is 850 ng/mL.

**Q.** And the concentration at 6 h [1, 3]?
**A.** The concentration at 6 h was 460 ng/mL.

**Q.** And the concentration at 0.083 h [1, 4]?
**A.** Its concentration at 0.083 h is 3940 ± 730 ng/mL.

**Q.** And the concentration at 0.25 h [1, 4]?
**A.** Its concentration at 0.25 h is 3770 ± 640 ng/mL.

**Q.** What about the concentration at 0.5 h [1, 4] of the same molecule?
**A.** The concentration at 0.5 h was 3530 ± 530 ng/mL.

**Q.** What about the concentration at 0.75 h [1, 4] of the same molecule?
**A.** The concentration at 0.75 h was 3310 ± 740 ng/mL.

**Q.** And the concentration at 1 h [1, 4]?
**A.** The concentration at 1 h was 3190 ± 700 ng/mL.

**Q.** And the concentration at 2 h [1, 4]?
**A.** The concentration at 2 h was 2300 ± 650 ng/mL.

**Q.** What about the concentration at 4 h [1, 4] of the same molecule?
**A.** Its concentration at 4 h is 1010 ± 160 ng/mL.

**Q.** What about the concentration at 6 h [1, 4] of the same molecule?
**A.** Its concentration at 6 h is 420 ± 90 ng/mL.

**Q.** What about the concentration at 8 h [1, 4] of the same molecule?
**A.** Its concentration at 8 h is 210 ± 80 ng/mL.
